Experiment [1] relates to tumor necrosis factor-α (TNF-α). As to the kind of experiment: Sandwich ELISA quantification of TNF-α in supernatants of treated fibroblast-like synoviocytes. In kind it is cell-based, human. As to conditions: fibroblast-like synoviocytes from patients with degenerative arthritis, 24 hours treatment, supernatant. The method, then:
(§1) The fibroblast-like synoviocytes (FLS) from five patients with degenerative arthritis were collected and cultured. First, the joint synovium of the patients were cut into small pieces, suspended in a DMEM (Dulbecco modified eagle's medium) culture medium, and incubated under an environment of 37° C. and 5% CO2 for 3 days. The culture medium contains 1.5 g/L sodium bicarbonate (S6297, Sigma-Aldrich, St Louis, Mo., USA), 1% penicillin-streptomycin-neomycin (P408, Sigma-Aldrich), and 10% fetal bovine serum (04-001-1A, Biological Industries, Grand Island, N.Y., USA).
(§2) Non-attached cells were removed by a phosphate buffered saline solution (PBS), the culture medium was refreshed, and the attached cells were cultured for 2 weeks. After the above steps were repeated 3 to 6 times, the remaining cells were fibroblast-like synoviocytes. The obtained cells were then used for the following test.
(§3) The fibroblast-like synoviocytes obtained form Experiment A were cultured in a serum-free culture medium for 24 hours. Then, the fibroblast-like synoviocytes were separately cultured in the following four culture medium for 24 hours: (1) a DMEM culture medium comprising only 10% fetal bovine serum (as a control group); (2) a DMEM culture medium comprising 10% fetal bovine serum and hyaluronic acid (having an average molecular weight of 600 KDa to 800 KDa); (3) a DMEM culture medium comprising 10% fetal bovine serum and vitamin C, vitamin D, or vitamin E; and (4) a DMEM culture medium comprising 10% fetal bovine serum, hyaluronic acid (having an average molecular weight of 600 KDa to 800 KDa), and vitamin C, vitamin D or vitamin E. The concentrations of hyaluronic acid and vitamin in the above four culture mediums were the same as the above Preparation Example.
(§4) Then, the cells of the aforesaid four groups were collected and centrifuged, and the supernatants were collected for the following analysis.
(§5) In this experiment, the concentrations of two cytokines related to degenerative arthritis in the collected supernatants from Experiment B were determined by using a sandwich binding protein assay kit (or sandwich ELISA kits, purchased from the eBioscience company) based on the standard curves according to the manufacturer's manual to analyze the expression level of these cytokines and determine the inflammation level of the cells. […] Each sample was analyzed twice, and an enzyme-linked immunosorbent assay (ELISA) reader (Sunrise Remote, TECAN) was used to carry out the measurement.
(In an ELISA, binding on a coated surface is turned into a signal by an enzyme label.)

Another experiment deals with Interleukin-1β (IL-1β). As to the kind of experiment: Sandwich ELISA quantification of IL-1β in supernatants of treated fibroblast-like synoviocytes. Type of experiment: cell-based, human. As to conditions: fibroblast-like synoviocytes from patients with degenerative arthritis, 24 hours treatment, supernatant. As for the experimental part: as §1, §2, §3, §4, §5
[2] abbreviates: Table 2 (vitamin D experiment), control 106.78.
The mark [3] stands for this setting: Table 2 (vitamin D experiment), control 97.47.
The mark [4] stands for this setting: Table 1 (vitamin C experiment), control 95.57.
Where [5] appears, read: Table 1 (vitamin C experiment), control 91.98.
Setting [6] is: Table 3 (vitamin E experiment), control 98.09.
The mark [7] stands for this setting: Table 3 (vitamin E experiment), control 97.37.

Compound vitamin D gave a TNF-α average concentration in experiment [1] (setting [2]) of 79.52 pg/mL. In addition, the IL-1β average concentration in the experiment with Interleukin-1β (IL-1β) (setting [3]) came out at 74.78 pg/mL.

For `O=C1O[C@H]([C@@H](O)CO)C(O)=C1O` [vitamin C], in experiment [1] (setting [4]), the TNF-α average concentration is 75.56 pg/mL. This compound also showed an IL-1β average concentration with Interleukin-1β (IL-1β) (setting [5]) of 77.00 pg/mL.

On to hyaluronic acid, for which the TNF-α average concentration was determined as 75.64 pg/mL in experiment [1] (setting [4]), 82.52 pg/mL in experiment [1] (setting [2]) and 79.28 pg/mL in experiment [1] (setting [6]). Besides, the IL-1β average concentration turned out to be 78.79 pg/mL in the experiment with Interleukin-1β (IL-1β) (setting [5]), 76.03 pg/mL in the experiment with Interleukin-1β (IL-1β) (setting [3]) and 78.33 pg/mL in the experiment on Interleukin-1β (IL-1β) (setting [7]).

The compound vitamin E gave a TNF-α average concentration in experiment [1] (setting [6]) of 77.03 pg/mL. The compound further yielded an IL-1β average concentration in the experiment on Interleukin-1β (IL-1β) (setting [7]) of 75.57 pg/mL.

Source of the values: patent publication US20150094279A1, “PHARMACEUTICAL COMPOSITION AND METHOD FOR INHIBITING INFLAMMATION” (CHINA MEDICAL UNIVERSITY, priority 2011, published 2015).
